Values of other authors as cited in US20030215409A1, “Process for the treatment of human keratinous fibers” (L'OREAL, priority 2002, published 2003).

System: hair
Details: hair densification, current compositions

## Nc1ccnc(N)[n+]1[O-] [aminexil]
  time after which the user begins to have a benefit: 1.5 months
